From patent US10046001B2, “Compositions and methods for reducing intraocular pressure” (UNIVERSITY OF MIAMI, priority 2013, dated 2018)

How the values were obtained:
[1] = tested on: normotensive cynomolgus monkeys; test: IOP and slit lamp examination in normotensive cynomolgus monkeys after topical lipid; type: in vivo
Description: Lipids were topically administered in 1 μl volume around ˜1 pm in the afternoon. The right eye was treated with vehicle alone, and the left eye was treated with lipid. The cynomolgus monkeys (n=4) were treated with […] lipid (except C17S1P which was 50 nM) for 5 days. Monkeys were subjected to slit lamp examination and IOP measurement prior to and after treatment. The IOP measured 3-6 hours post-treatment on the fifth day of treatment is depicted as solid bars. The hollow bars are control (vehicle only (5% DMSO)).
Experimental design: The IOP-reducing activity of six lipids was tested in the eyes of cynomolgus monkeys (n=4 animals for each lipid). Baseline slit lamp biomicroscopic examination (SLE) and IOP for each group of animals was measured prior to topical application of lipids. The SLE and IOP were then measured at 3-6 hours posttreatment. One eye of each monkey received topical application with the lipid suspended in vehicle (1% dimethylsulfoxide (DMSO)), and the contralateral eye was treated with vehicle only. All topical applications contained 10 picomole of lipid (except C17S1P, which was 50 nM). […] The IOP was measured using a minified Goldmann applanation tonometer.

DBA/2J mice = test: IOP lowering after topical application in DBA/2J mice; type: in vivo, mouse; details: DBA/2J mouse at 8 months, IOP ~35 mm of Hg, topical once daily up to 7 days
Description: The right eye was treated with vehicle alone and left eye treated with lipid. Control had both eyes treated with vehicle. A. In DBA/2J mice the indicated lipid in vehicle or control (vehicle only) were administered one daily at around 7.5 months of age in mice which were noted to have a IOP≥18 mm of Hg (20% increase from an average baseline of 15 mm of Hg was employed as treatment point). The average IOP recordings are shown for indicated lipids. B. A 10 picomole each of six PC (13:0/13:0; PE (18:0/18:0), Lyso-PS 18:0, PS 18:1, Sphinganine and C17S1P) were combined and applied as a topical dose once daily for up to 7 days on DBA/2J mouse eyes in 5% DMSO (vehicle). […] Transgenic myocillin mice [Tg-MYOC(Y437H)] subjected to a topical dose of indicated lipids as noted above (FIG. 5C). The IOP lowering compared to control was noted on day 4 and 6 as shown.
Intraocular pressure lowering in mouse models. The endogenous lipids lowered IOP in a DBA/2J mouse model of glaucoma (FIG. 5A). DBA/2J is the only known mouse animal where elevation of IOP occur spontaneously. Although this mouse also suffers from pigmentary dispersion, however, elevation of IOP appears not to correlate with […]. The lipids as indicated were applied as a topical dose (10 pmole in 5% DMSO as vehicle). The 5% DMSO only vehicle served as a control (FIG. 5A). […] A 10 picomole each of six PC (13:0/13:0; PE (18:0/18:0), Lyso-PS 18:0, PS 18:1, Sphinganine, and C17S1P) were combined and applied as a topical dose once daily for up to 7 days on DBA/2J mouse eyes in 5% DMSO (vehicle) (in other words, 10 picomoles of each PC was included). […] In addition to the DBA/2J model described here, these endogenous lipids lowered IOP in cochlin and connective tissue growth factor (CTGF) over-expression models. […] Thus the endogenous lipids assessed here lowered IOP in vastly different DBA/2J and MYOC(Y437H) mouse models as well as in cochlin and CTGF overexpression models covering a broad swath of four rodent glaucoma models that encompass induced as well as spontaneous IOP elevation.
Topical application of lipids and measurement of IOP: The lipids were topically applied as 1 μl drops with 10 pmole lipids. Pressure was measured with a tonolab (Colonial
Medical Supplies, N.H.) or with an assembled cannulation device, used in our laboratory. An initial assessment had utilized 10% DMSO as vehicle. However, all data reported here utilized 5% DMSO.

SMILES | IOP reduction ([1]; topical 10 picomole (C17S1P 50 nM), 5 days, IOP 3-6 hours post-treatment) | adverse side effects or toxicity ([1]; topical, slit lamp examination) | lowering of IOP after elevation, short term application (FIG. 5B) (DBA/2J mice)
CCCCCCCCCCCCCCCCCC(=O)OC[C@@H](O)COP(=O)(O)OC[C@H](N)C(=O)O [PS18:0 Lyso-PS] | reduced IOP significantly | without additional adverse side effects or toxicity | 
CCN[C@H]1C[C@H](C)S(=O)(=O)c2sc(S(N)(=O)=O)cc21 [Dorzolamide, reference compound] |  |  | same level of IOP reduction as Timolol
